Results published in PubChem BioAssay AID179 (DTP/NCI, 2004).
Values joined by “and” are separate entries in the source; they are usually repeats but may differ in a detail not shown here. Equal values may be shown once. Active and inactive are the calls of the source.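 The calls were made as follows: active = compounds giving half or more protection of infected cells from virus-caused growth loss, again on retest; inactive = the rest.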 Where a SMILES comes first, the peptide text is derived from it. Bridges are numbered along the chain shown (N, C = ends). [ ]: non-standard residue; d: D form. The star is where a group is joined. Cbz = O=C(OCc1ccccc1)*; Aib = CC(C)(N)C(=O)O; OBn = c1ccc(CO*)cc1; βAla = NCCC(=O)O

System: CEM cells HIV-1 protection, formazan growth assay
Test: NCI AIDS Antiviral Assay
Details: for IC50: measured here: growth of uninfected CEM cells
Procedure, shortened: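 Steps: treat uninfected and HIV-1-infected human CEM cells at five drug levels; quantify growth by soluble formazan; retest any compound reaching 50% protection; classify actives from the retest.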

Row | SMILES | EC50 [µM] | IC50 | outcome
1 | C(#Cc1ccccc1)SC1=C(c2ccccc2)S/C(=C(\SC#Cc2ccccc2)c2ccccc2)S1 | > 200 | > 200 µM | –
2 | O=CCOCc1cc2c(cc1Br)OCO2 | > 200 | 5.25 µM | –
3 | OCCN1CCN(CCO)Cc2ccccc2OCCOc2ccccc2C1 | > 245 | 97.7 µM | –
4 | COC(=O)C(Cc1ccccc1)C(=O)C(CC(=O)OC(C)(C)C)NC(=O)OC(C)(C)C (centres undefined) | > 200 | > 200 µM | –
5 | COc1cc2c(cc1OCCCN1C(=O)c3cccc4cccc(c34)C1=O)N=C[C@@H]1CCCN1C2=O | 5.13 | 13.2 µM | –
6 | COc1ccc2c(c1)CC1Cc3cc(OC)c(OC)cc3CN1CC2 (centres undefined) | > 200 | 23.4 µM | –
7 | CC1(c2ccccc2)OC(=O)c2c1ccc1ccccc21 (centres undefined) | – | – | inactive
8 | Nc1c(N=Nc2ccc([N+](=O)[O-])cc2)c(S(=O)(=O)O)cc2cc(S(=O)(=O)O)c(N=Nc3ccc(-c4ccc(N=Nc5ccc(O)cc5)cc4)cc3)c(O)c12 | > 100 | 15.1 µM | –
9 | O=C1C=C(N2CC2)C(=O)C(N2CC2)=C1N1CC1 | > 10.7 | 0.0324 µM | –
10 | CC1=C(C)C(=O)C(C2=C(C3=CC(=O)C(C)=C(C)C3=O)C(=O)c3ccccc3C2=O)=CC1=O | > 200 | 5.62 µM | –
11 | S=C(S)N1CCOCC1 | > 200 | 0.724 µM | –
12 | COc1ccc(CCC2(C(OC)OC)NC(=O)NC2=O)cc1 (centres undefined) | > 200 | > 200 µM | –
13 | CN(C)c1ccc(/C=C2/N=C(c3ccccc3)OC2=O)cc1 | > 200 | 141 µM | –
14 | CCCCCCCCCC=C(c1cc(Br)cc(C(=O)O)c1O)c1cc(Br)cc(C(=O)O)c1O | > 22.9 | > 22.9 µM | –
15 | CCC(N)CS(=O)(=O)O (centres undefined) | > 200 | > 200 µM | –
16 | C=C(C)[C@@H]1CC[C@]2(CO)CC[C@]3(C)[C@H](CC[C@@H]4[C@@]5(C)CC[C@H](O)C(C)(C)[C@@H]5CC[C@]43C)[C@@H]12 | 41.7 | 69.2 µM | –
17 | CC1(C)NC(=O)C(NC(=O)C(CC(=O)OCc2ccccc2)NC(=O)OCc2ccccc2)CCCCNC(=O)CCNC1=O (centres undefined) (Cbz-D(OBn)K[Aib][βAla]; lactam 2-C; configuration not given here) | > 200 | > 200 µM | –
18 | Cc1ccc(C2=Nc3cc(C)c(Cl)cc3S(=O)(=O)NN2)cc1 | 34.7 | 87.1 µM | –
19 | C=C(C)CCNCC/C=C\[Si](C)(C)C | > 1170 | > 1170 µM | –
20 | COc1cc(Nc2nc3ccccc3nc2-c2cccs2)cc(OC)c1OC | > 25.1 | 21.9 µM | –

Row | SMILES | EC50 [µM] | IC50 | outcome
21 | O=C(c1ccc(Cl)cc1)N(C(=S)N1CCN(c2ccccn2)CC1)C1CCCCC1 | > 11.7 | 8.51 µM | –
22 | CCOC(=O)CC(NCc1ccc(N=Cc2nc3ccc(C(F)(F)F)cc3nc2-c2ccccc2)cc1)C(=O)OCC (centres undefined) | > 200 | 162 µM | –
23 | CN1C(=O)C2(C#N)C(C)(C)C2(C#N)C1=O (centres undefined) | > 200 | > 200 µM | –
24 | CN(C)c1ccc(/C=C2\Cc3ccccc3C2=O)cc1Br | > 11 | > 11 µM | –
25 | CCOC(=O)Nc1cc(NC(/C=N/NC(C)=O)C(=O)OCC)c(OC)cc1NC(C)=O (centres undefined) | > 200 | > 200 µM | –
26 | CCOC(=O)c1nc2cc(C(F)(F)F)ccc2nc1Oc1ccc(OC)cc1 | > 200 | 174 µM | –
27 | O=C(CCN1CCCC1)c1ccc(Oc2ccc(F)cc2)cc1 | > 200 | 110 µM | –
28 | C=CCC1(c2ccccc2)Oc2ccccc2-n2cccc2C1=O (centres undefined) | 7.08 | 10.5 µM | –
29 | Nc1ccc(N=Nc2ccc(N=Nc3c(S(=O)(=O)O)cc4cc(S(=O)(=O)O)c(N=Nc5ccc(N=Nc6ccc(N)cc6N)cc5)c(O)c4c3N)cc2)c(N)c1 | 11.5 | 50.1 µM | –
30 | OC1c2ccccc2C(O)c2c1ccc1c2CN(Cc2ccccc2)CC1 (centres undefined) | > 72.4 | 12.6 µM | –
31 | COc1ccc(/C=C2/C[N+](C)(C)C/C(=C/c3ccc(OC)cc3)C2=O)cc1 | > 513 | 36.3 µM | –
32 | Nc1c2ccccc2nc2c1ccc1ncccc12 | > 200 | 6.46 µM | –
33 | CC(C)(C)[Si](C)(C)OCC1OC(n2ccc(=O)[nH]c2=O)C(O[Si](C)(C)C(C)(C)C)C12OC2C(=O)NN (centres undefined) | > 200 | 7.41 µM | –
34 | O=C(O)/C=C\C(=O)Nc1ccccc1O | > 200 | > 200 µM | –
35 | CCOC(=O)c1c(N2CCOCC2)[nH]c(=O)c(C(c2cccs2)c2c(O)c(C(=O)OCC)c(N3CCOCC3)[nH]c2=O)c1O | > 200 | > 200 µM | –
36 | COc1ccc(C(Cc2ccccc2)C2NC(=S)NC2=O)cc1 (centres undefined) | > 200 | 58.9 µM | –
37 | NC1=NN(O)C2=CC([N+](=O)[O-])C=CC2=N1 (centres undefined) | > 25.1 | 20.4 µM | –
38 | CCOc1ccc(/C(Cl)=C(\C=O)c2ccc(OC)c(OC)c2)cc1OCC | > 25.7 | 14.1 µM | –
39 | Brc1ccc(-c2nc(-c3ccc(Br)cc3)n(-c3ccccc3)n2)cc1 | > 200 | 93.3 µM | –
40 | COc1ccc(-c2c3c(n(C4OC(COC(C)=O)C(OC(C)=O)C(OC(C)=O)C4OC(C)=O)c(=S)c2C#N)CC(C)(C)CC3=O)cc1 (centres undefined) | > 200 | 26.3 µM and 53.7 µM | –
